# Measurements taken from publication PMC12087653 (Autophagy, 2025).
# Experiments:
# LGG-1 = LGG-1 (Caenorhabditis elegans, UniProt Q09490); conditions: cited from earlier work
# HeLa cells = conditions: Rab7 colocalization; cited from earlier work
# GABARAP = conditions: full-length HsEPG5; cited from earlier work
# LC3/GABARAP proteins = conditions: cited from earlier work
# [1] = test system: STX17-SNAP29-VAMP8 complex; conditions: in vitro fusion assay; cited from earlier work
# His-LGG-1 = His-LGG-1 (C. elegans, UniProt Q09490 1-116); assay: ITC
# His-LGG-1, sequence (Q09490 1-116): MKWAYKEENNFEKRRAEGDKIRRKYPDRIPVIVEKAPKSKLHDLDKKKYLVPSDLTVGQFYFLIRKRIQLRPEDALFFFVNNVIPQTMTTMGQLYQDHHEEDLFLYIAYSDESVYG
# LGG-1, sequence (Q09490 whole entry): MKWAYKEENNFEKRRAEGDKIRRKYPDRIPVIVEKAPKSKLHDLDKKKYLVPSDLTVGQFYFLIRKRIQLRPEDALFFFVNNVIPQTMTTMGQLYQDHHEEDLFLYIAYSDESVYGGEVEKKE
molecule,measurement,setting,value
"CeEPG5: C. elegans EPG-5, recombinant",binding to LGG-1,LGG-1,binds the C. elegans Atg8 protein LGG-1 via its tandem LIR
HsEPG5: human EPG5 (ectopic P-granules 5 autophagy tethering factor; ~290 kDa),formation of puncta / localization in cells,HeLa cells,could form small puncta that colocalize with lysosomal surface-residing Rab7 in HeLa cells
same,Atg8 subfamily preference of HsEPG5,GABARAP,preferentially binds members of the GABARAP subfamily
same,dependence of peri-nuclear localization on LC3/GABARAP proteins,LC3/GABARAP proteins,HsEPG5 localization to the peri-nuclear region is independent of LC3/GABARAP proteins
same,effect on STX17-SNAP29-VAMP8 complex formation,[1],modestly enhances the formation of the STX17-SNAP29-VAMP8 complex
GEANEFSFVTINE [CeEPG5 LIR2 peptide (516GEANEFSFVTINE528)],Kd,His-LGG-1,10.4 µM
STWEILADDDD [CeEPG5 LIR1 peptide (505STWEILADDDD515)],Kd,His-LGG-1,1.46 µM
